Laboratory results taken from publication doi:10.1101/510487v2 (biorxiv, 2019).

T1: FH-hGlyT2; human GlyT2 (Homo sapiens, UniProt Q9Y345)
T1 sequence (Q9Y345 1-797): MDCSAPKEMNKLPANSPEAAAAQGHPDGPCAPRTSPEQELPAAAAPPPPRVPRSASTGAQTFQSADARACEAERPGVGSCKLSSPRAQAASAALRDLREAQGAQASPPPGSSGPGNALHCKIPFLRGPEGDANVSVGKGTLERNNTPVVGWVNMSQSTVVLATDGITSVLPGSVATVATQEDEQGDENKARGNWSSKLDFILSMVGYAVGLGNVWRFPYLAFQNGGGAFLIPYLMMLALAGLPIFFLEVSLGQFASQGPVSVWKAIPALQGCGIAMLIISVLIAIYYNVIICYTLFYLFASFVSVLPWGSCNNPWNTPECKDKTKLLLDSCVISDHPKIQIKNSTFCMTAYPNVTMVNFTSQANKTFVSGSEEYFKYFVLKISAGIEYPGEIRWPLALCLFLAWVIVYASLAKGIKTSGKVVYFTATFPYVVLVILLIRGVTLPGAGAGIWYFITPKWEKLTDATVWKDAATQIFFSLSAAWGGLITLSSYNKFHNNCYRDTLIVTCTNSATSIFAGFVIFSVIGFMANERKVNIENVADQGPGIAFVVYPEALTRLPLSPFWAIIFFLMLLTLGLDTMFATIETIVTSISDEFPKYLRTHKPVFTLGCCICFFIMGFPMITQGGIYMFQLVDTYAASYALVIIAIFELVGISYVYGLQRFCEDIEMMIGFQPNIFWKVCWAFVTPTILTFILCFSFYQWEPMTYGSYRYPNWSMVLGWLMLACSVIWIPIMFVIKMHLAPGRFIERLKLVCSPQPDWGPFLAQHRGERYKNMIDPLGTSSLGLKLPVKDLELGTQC


Assays:
FH-hGlyT2; human GlyT2 = molecular target: T1, FH-hGlyT2; human GlyT2; assay: glycine uptake inhibition in PAE cells; type: cell-based
[1] = substrate: NCC(=O)O; assay: glycine uptake in PAE cells; type: cell-based, Homo sapiens

Molecule | IC50 (FH-hGlyT2; human GlyT2; pH 7.5, 10 min uptake) [nM] | further results
CN(CC[C@@H](Oc1ccc(-c2ccccc2)cc1)c1ccc(F)cc1)CC(=O)O [ALX5407, reference compound] |  | IC50 (FH-hGlyT2; human GlyT2; slow rate of inhibition, data not shown): 1800 nM
O=c1[nH]c2c(c(=O)[nH]1)CCN(Cc1ccccc1)C2 [Lead 3] | 33200 | 
N[C@@H](COC(c1cccc(F)c1)c1ccccc1OCc1ccccc1)C(=O)O (stereo partly drawn) [ALX1393, reference compound] | 26 ± 3 | 
O=C(O)CCSc1[nH]c(=O)nc2[nH]c(=O)[nH]c12 [compound 1, ZINC6620309] | 478 ± 28 | 
O=C(O)CCCCSc1ncnc2[nH]c(=O)[nH]c12 [ZINC6865169] | 518 ± 66 | 
FH-hGlyT2; human GlyT2 (Homo sapiens) (protein) MDCSAPKEMNKLPANSPEAAAAQGHPDGPCAPRTSPEQELPAAAAPPPPRVPRSASTGAQTFQSADARACEAERPGVGSCKLSSPRAQAASAALRDLREAQGAQASPPPGSSGPGNALHCKIPFLRGPEGDANVSVGKGTLERNNTPVVGWVNMSQSTVVLATDGITSVLPGSVATVATQEDEQGDENKARGNWSSKLDFILSMVGYAVGLGNVWRFPYLAFQNGGGAFLIPYLMMLALAGLPIFFLEVSLGQFASQGPVSVWKAIPALQGCGIAMLIISVLIAIYYNVIICYTLFYLFASFVSVLPWGSCNNPWNTPECKDKTKLLLDSCVISDHPKIQIKNSTFCMTAYPNVTMVNFTSQANKTFVSGSEEYFKYFVLKISAGIEYPGEIRWPLALCLFLAWVIVYASLAKGIKTSGKVVYFTATFPYVVLVILLIRGVTLPGAGAGIWYFITPKWEKLTDATVWKDAATQIFFSLSAAWGGLITLSSYNKFHNNCYRDTLIVTCTNSATSIFAGFVIFSVIGFMANERKVNIENVADQGPGIAFVVYPEALTRLPLSPFWAIIFFLMLLTLGLDTMFATIETIVTSISDEFPKYLRTHKPVFTLGCCICFFIMGFPMITQGGIYMFQLVDTYAASYALVIIAIFELVGISYVYGLQRFCEDIEMMIGFQPNIFWKVCWAFVTPTILTFILCFSFYQWEPMTYGSYRYPNWSMVLGWLMLACSVIWIPIMFVIKMHLAPGRFIERLKLVCSPQPDWGPFLAQHRGERYKNMIDPLGTSSLGLKLPVKDLELGTQC |  | Km [1]: 123 µM
